The record followed here is PubChem BioAssay AID652124 (The Scripps Research Institute Molecular Screening Center, 2013).

SMILES strings stand for the structures. The source made the active and inactive calls. The rule behind the calls is not given here.

Usually IC50 stands for the concentration that inhibits the measured activity by half.

In this assay the target is Perilipin-5 (Homo sapiens) + 1-acylglycerol-3-phosphate O-acyltransferase ABHD5 (Homo sapiens) (UniProt Q00G26+Q8WTS1). Kind of assay: ABHD5-PLIN5 binding inhibitors, late-stage follow-up, biochemical, luminescence, dose response, round 2 (AID 652124). To be noted: biochemical ABHD5-PLIN5 interaction.
Chain of Perilipin-5 (Homo sapiens) + 1-acylglycerol-3-phosphate O-acyltransferase ABHD5 (Homo sapiens) (Q00G26 whole entry, looked up): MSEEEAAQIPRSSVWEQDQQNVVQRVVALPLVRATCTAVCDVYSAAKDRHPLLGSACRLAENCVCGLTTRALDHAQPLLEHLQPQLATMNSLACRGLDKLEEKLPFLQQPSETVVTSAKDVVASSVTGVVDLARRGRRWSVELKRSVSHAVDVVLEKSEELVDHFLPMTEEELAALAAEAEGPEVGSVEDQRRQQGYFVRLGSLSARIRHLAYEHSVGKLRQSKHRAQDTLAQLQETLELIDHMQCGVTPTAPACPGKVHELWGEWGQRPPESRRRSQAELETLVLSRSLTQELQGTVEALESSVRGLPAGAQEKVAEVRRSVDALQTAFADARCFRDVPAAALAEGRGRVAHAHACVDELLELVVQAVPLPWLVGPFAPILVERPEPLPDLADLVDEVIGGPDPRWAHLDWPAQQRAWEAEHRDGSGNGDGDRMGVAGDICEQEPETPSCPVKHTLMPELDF
Chain of Perilipin-5 (Homo sapiens) + 1-acylglycerol-3-phosphate O-acyltransferase ABHD5 (Homo sapiens) (Q8WTS1 whole entry, looked up): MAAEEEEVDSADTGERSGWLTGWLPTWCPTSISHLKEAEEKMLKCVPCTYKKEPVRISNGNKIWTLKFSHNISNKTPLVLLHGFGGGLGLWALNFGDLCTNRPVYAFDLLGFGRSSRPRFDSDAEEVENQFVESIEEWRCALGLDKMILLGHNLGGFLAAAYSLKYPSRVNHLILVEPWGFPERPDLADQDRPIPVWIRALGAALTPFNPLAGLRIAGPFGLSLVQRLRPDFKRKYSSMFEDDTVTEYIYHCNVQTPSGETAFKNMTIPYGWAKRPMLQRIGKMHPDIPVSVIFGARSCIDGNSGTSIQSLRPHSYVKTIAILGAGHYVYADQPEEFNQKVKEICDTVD
As for `COc1ccc(CCNC(=O)c2nc(S(=O)(=O)Cc3ccc(F)cc3)ncc2Cl)cc1OC`, the IC50 was 2.95 µM.

As for `O=C(CCc1c[nH]c2ccccc12)N1CCN(S(=O)(=O)c2ccc3c(c2)OCCO3)CC1`, the IC50 is > 39.8 µM (inactive).

Turning to `CCCS(=O)(=O)c1ccc(Cl)c(C(=O)Nc2ccc(C(=O)OCC)cc2)c1`, the IC50 is 4.12 µM.

With `CN1C(=O)c2ccccc2Sc2ccc(NC(=O)NCCc3ccccc3)cc21`, the IC50 was 3.7 µM.

In the case of `CN(C)CCCN(C(=O)CCc1ccccc1)c1nc2ccc(Cl)cc2s1`, the IC50 result was “inactive”.

For `CN(C)CCCN(C(=O)c1cc2ccccc2oc1=O)c1nc2ccc(Cl)cc2s1`, the IC50 entry is “inactive”.

In the case of `O=C(c1nc(S(=O)(=O)Cc2ccccc2)ncc1Cl)N(Cc1ccccc1)Cc1ccco1`, the IC50 is 1.64 µM.

As to `CN1C(=O)c2ccccc2Oc2ccc(NC(=O)c3cc4ccccc4[nH]3)cc21`, the IC50 was > 39.8 µM (inactive).

In the case of `COc1ccc(OCC(=O)Nc2ccc3c(c2)N(C(C)C)C(=O)c2ccccc2O3)cc1`, the IC50 is > 39.8 µM (inactive).

Take `O=C(CCc1nc2ccccc2s1)N1CCN(S(=O)(=O)c2ccc3c(c2)OCCO3)CC1`: the IC50 was > 39.8 µM (inactive).

Regarding `CC(NC(=O)CN1CCN(S(=O)(=O)c2ccc3c(c2)OCCCO3)CC1)c1cc2ccccc2o1` (configuration not stated), the IC50 is > 39.8 µM (inactive).

On to `CS(=O)(=O)c1ncc(Cl)c(C(=O)Nc2ccc(C(F)(F)F)cc2)n1`, for which the 50% inhibitory concentration (IC50) is 1.45 µM.

Turning to `CCCCCCCNC(=O)Nc1ccc2c(c1)Sc1ccccc1C(=O)N2C`, the IC50 entry is “inactive”.

As to `CN1C(=O)c2ccccc2Oc2ccc(NC(=O)c3cccs3)cc21`, the IC50 was > 39.8 µM (inactive).

Turning to `CCCC(=O)Nc1ccc2c(c1)C(=O)N(C)c1ccccc1O2`, the IC50 was > 39.8 µM (inactive).

Take `COc1ccc(CC(=O)N2CCN(S(=O)(=O)c3ccc4c(c3)OCCCO4)CC2)cc1`: the IC50 was > 39.8 µM (inactive).

Take `Cc1ccc2c(CC(=O)N3CCN(S(=O)(=O)c4ccc5c(c4)OCCCO5)CC3)coc2c1C`: the IC50 was 4.72 µM.

With `NS(=O)(=O)c1ccc(NC(=O)c2nc(S(=O)(=O)Cc3ccccc3)ncc2Cl)cc1`, the 50% inhibitory concentration (IC50) was 3.8 µM.

`O=C(Cc1cccc(F)c1)N1CCN(S(=O)(=O)c2ccc3c(c2)OCCO3)CC1`: the IC50 is > 39.8 µM (inactive).

Take `Cc1ccc(CS(=O)(=O)c2ncc(Cl)c(C(=O)Nc3cccc4ccccc34)n2)cc1`: the half-inhibitory concentration (IC50) is 2.19 µM.

`CCS(=O)(=O)c1ncc(Cl)c(C(=O)Nc2ccc(S(N)(=O)=O)cc2)n1`: the IC50 was 6.48 µM.

Take `CN1C(=O)c2ccccc2Sc2ccc(NC(=O)NCCc3cccs3)cc21`: the concentration for half-maximal inhibition (IC50) is 4.98 µM.

On to `CCCNC(=O)Nc1ccc2c(c1)N(CC)C(=O)c1ccccc1S2`, for which the IC50 entry is “inactive”.

Consider `CC(C)N1C(=O)c2ccccc2Oc2ccc(NC(=O)c3ccccc3)cc21`, for which the IC50 is > 39.8 µM (inactive).

Consider `CCCCCNC(=O)Nc1ccc2c(c1)Sc1ccccc1C(=O)N2C`, for which the IC50 is > 39.8 µM (inactive).

For the molecule `CCCC(=O)Nc1ccc2c(c1)C(=O)N(C)c1cc(C)ccc1O2`, the IC50 is > 39.8 µM (inactive).

In the case of `CN(C)CCCN(C(=O)Cc1ccc(F)cc1)c1nc2ccc(Cl)cc2s1`, the IC50 entry is “inactive”.

With `CCCS(=O)(=O)c1ncc(Cl)c(C(=O)Nc2ccc(C(=O)OC)cc2)n1`, the IC50 is 4.44 µM.

As to `O=C(C1COc2ccccc2O1)N1CCN(S(=O)(=O)c2ccc3c(c2)OCCO3)CC1` (configuration not stated), the IC50 was > 39.8 µM (inactive).

As to `Cc1ccc(NC(=O)c2nc(S(C)(=O)=O)ncc2Cl)cc1`, the IC50 is 4.24 µM.

For `O=C(Cc1ccc2c(c1)CCCC2)N1CCN(S(=O)(=O)c2ccc3c(c2)OCCO3)CC1`, the IC50 result is “inactive”.

Take `Cc1ccc(CS(=O)(=O)c2ncc(Cl)c(C(=O)N3CCN(C)CC3)n2)cc1`: the half-inhibitory concentration (IC50) was 5.91 µM.

As to `CCS(=O)(=O)c1ncc(Cl)c(C(=O)Nc2ccc(C)cc2)n1`, the IC50 was 4.13 µM.

In the case of `CCCCCCNC(=O)Nc1ccc2c(c1)Sc1ccccc1C(=O)N2C`, the IC50 was > 39.8 µM (inactive).

Regarding `CN1C(=O)c2ccccc2Sc2ccc(NC(=O)NCCCc3ccccc3)cc21`, the 50% inhibitory concentration (IC50) is 1.72 µM.

Regarding `O=C(Nc1ccc2ccccc2c1)c1nc(S(=O)(=O)Cc2ccccc2)ncc1Cl`, the IC50 was 2.17 µM.

With `Cc1ccc(CS(=O)(=O)c2ncc(Cl)c(C(=O)Nc3nnc(C(C)C)s3)n2)cc1`, the IC50 is > 13.3 µM (inactive).

In the case of `CN(C)CCCN(C(=O)C1CCCCC1)c1nc2cc(Cl)ccc2s1`, the IC50 is > 39.8 µM (inactive).

With `CN(C(=O)c1nc(S(C)(=O)=O)ncc1Cl)c1ccccc1`, the concentration for half-maximal inhibition (IC50) was 3.56 µM.

For the molecule `COc1ccc(CC(=O)N2CCCN(S(=O)(=O)c3ccc(C)cc3)CC2)cc1OC`, the IC50 was > 39.8 µM (inactive).

Take `CN(C)CCCN(C(=O)C1CCCCC1)c1nc2cc(Br)ccc2s1`: the IC50 entry is “inactive”.

As to `CCc1ccc2c(CC(=O)N3CCN(S(=O)(=O)c4ccc5c(c4)OCCO5)CC3)coc2c1`, the half-maximal inhibitory concentration (IC50) is 3.88 µM.

Turning to `Cc1ccc2cc(CC(=O)N3CCN(S(=O)(=O)c4ccc5c(c4)OCCO5)CC3)oc2c1`, the IC50 entry was “inactive”.

As for `O=C(CCn1cnc2ccccc21)N1CCN(S(=O)(=O)c2ccc3c(c2)OCCO3)CC1`, the IC50 was > 39.8 µM (inactive).

Turning to `CCCC(=O)N(CCCN1CCOCC1)c1nc2ccc(Cl)cc2s1`, the IC50 is > 39.8 µM (inactive).

For the molecule `Cc1ccc(CS(=O)(=O)c2ncc(Cl)c(C(=O)Nc3cccc(C(F)(F)F)c3)n2)cc1`, the IC50 was 1.76 µM.

In the case of `Cc1ccc(CS(=O)(=O)c2ncc(Cl)c(C(=O)NCc3ccc4c(c3)OCO4)n2)cc1`, the IC50 is 3.15 µM.
